What was measured:
Assay type in all cases: cell-based, Escherichia coli
E. coli W = test: pH-controlled batch fermentation (10% xylose)
LY180 (pLOI4856) [1] = test: Furfural toxicity / MIC in tube cultures, ucpA plasmid; conditions: Escherichia coli, 48 h, read-out: MIC of furfural
Procedure: (§1) Furfural toxicity was measured in tube cultures (13 mm by 100 mm) containing 4 ml of AM1 medium with 50 g liter^−1 xylose, 12.5 mg liter^−1 ampicillin, furfural, and other supplements as indicated (Miller et al., 2009a, b). Cultures were inoculated to an initial density of 22 mg dcw liter^−1. IPTG (0.1 mM) was included for fucO induction. Cell mass was measured at 550 nm after incubation for 48 h (37° C.). For cysteine supplement experiment, the culture condition was the same but included 0.1 mM cysteine as an amendment.
(§2) Derivatives of LY180 containing these plasmids were tested for furfural tolerance with (0.1 mM IPTG) and without IPTG induction using an MIC assay (Miller et al., 2009a; Miller et al., 2010; Wang et al., 2011b).

LY180 (pLOI4856) [2] = test: In vivo (whole cell) furfural reduction; conditions: plasmid copies of ucpA; similar to the vector control
Procedure: In vivo furfural reduction was measured during incubation in AM1 medium containing 10 mM furfural and 50 g liter^−1 xylose. Cells were pre-incubated with chloramphenicol (40 mg liter^−1) for 1 h to arrest growth (0.88 mg dcw cells ml^−1), prior to the addition of furfural. Furfural concentration was measured as previously described using a Beckman spectrophotometer DU800 (Martinez et al., 2000b).

[3] = system: XW137 (E. coli W ucpA::kan); test: pH-controlled batch fermentation (10% xylose)
LY180(pTrc99A) = test: Furfural toxicity / MIC in tube cultures, vector control; conditions: Escherichia coli, 48 h, read-out: MIC of furfural
Procedure: as §1, §2

O=Cc1ccco1 [furfural]
Cell Yield (E. coli W; 8 mM furfural): 1.9 ± 0.1 g/L
Furfural-dependent slow growth Duration (E. coli W; 8 mM furfural): 13 ± 1 h
Furfural-dependent slow growth μ (E. coli W; 8 mM furfural): 0.18 ± 0.01 h⁻¹
μ Max (E. coli W; 8 mM furfural): 0.19 ± 0.01 h⁻¹
Cell Yield (E. coli W; 10 mM furfural): 2.0 ± 0.1 g/L
Furfural-dependent slow growth Duration (E. coli W; 10 mM furfural): 21 ± 1 h
Furfural-dependent slow growth μ (E. coli W; 10 mM furfural): 0.06 ± 0.02 h⁻¹
μ Max (E. coli W; 10 mM furfural): 0.20 ± 0.02 h⁻¹
MIC (LY180 (pLOI4856) [1]): 15 mM
Whole-cell specific activity (furfural reductase) (LY180 (pLOI4856) [2]): < 0.10 U mg dcw^−1
Cell Yield ([3]; 8 mM furfural): 1.9 ± 0.1 g/L
Furfural-dependent slow growth Duration ([3]; 8 mM furfural): 16 ± 3 h
Furfural-dependent slow growth μ ([3]; 8 mM furfural): 0.11 ± 0.02 h⁻¹
Cell Yield ([3]; 10 mM furfural): 1.9 ± 0.1 g/L
Furfural-dependent slow growth Duration ([3]; 10 mM furfural): 37 ± 2 h
Furfural-dependent slow growth μ ([3]; 10 mM furfural): 0.02 ± 0.01 h⁻¹
μ Max ([3]; 10 mM furfural): 0.12 ± 0.02 h⁻¹
MIC (LY180(pTrc99A)): 10 mM
